Results on 31 compounds are retold here after US20250223281A1, “ANTIDIABETIC COMPOUNDS AND COMPOSITIONS” (REZUBIO PHARMACEUTICALS CO., LTD, priority 2022, published 2025).

The target of the assay is T1, GPR40 (Homo sapiens, UniProt O14842).
T1 construct: expressed in transfected cells; host or cells: HEK293 cells stably expressing GPR40 (Hygromycin selection)
Nature of the assay: IP1 accumulation assay in HEK293 cells stably expressing GPR40. It is filed as cell-based. Here is the method:
IP1 accumulation assay was used to evaluate the potency of compounds. HEK293 cells stably expressing GPR40 were cultured in 5% CO2 incubator (ThermoFisher) in maintenance media (Dulbecco's modified Eagle's medium with 4.5 g/L of glucose, 10% fetal bovine serum, 100 μg/mL Hygromycin, and Penicillin (100 U/mL)/Streptomycin (100 μg/mL)) till 100% confluency. Cells were harvested freshly, spun down at 300×g for 5 min, and resuspended in pre-warmed 1× stimulant buffer from Cisbio IP-One HTRF Detection kit (Cisbio). Cell density was adjusted to 2.0×10^6 cells/mL. DMSO was used as blank control and AMG-1638 (CAS #: 1142214-62-7) as positive control. Compounds were prepared at 10 mM in DMSO and 5 nL of 3× serially diluted compounds (10 concentrations) were added to each well of the 384-LDV assay plate (Corning) by using ECHO 550 (Labcyte). Five μL of cells in suspension were transferred into each well by using Multidrop Combi Reagent Dispenser (ThermoFisher). Assay plate was then sealed and incubated at 37° C. for 2 hours. IP-d2 reagent and anti-IP1 reagent were prepared following the manual (Cisbio). Five μL of IP1-d2 and then 5 μL of anti-IP1 antibody was added to each well sequentially. Assay plate was incubated at room temperature for 60 min and then read at 665 nm/615 nm on an Envision plate reader (PerkinElmer). The ratio of values obtained at 665 nm and 615 nm was used for calculation of IP1 accumulation: % Effect=(Ratiosample−Ratioblank)/(RatioAMG-1638−Ratioblank)×100. Dose curve was fitted and EC50 of each compound was calculated by using XLFit.

Where [1] appears, read: IP1 accumulation, HEK293 cells stably expressing GPR40, 2 hours at 37° C., % effect relative to AMG-1638, table of Biological Example 1.
The mark [2] stands for this setting: Tables A-1a to A-7b (structure-property relationship), obtained by methods of Biological Example 1.

T1 sequence (O14842 whole entry): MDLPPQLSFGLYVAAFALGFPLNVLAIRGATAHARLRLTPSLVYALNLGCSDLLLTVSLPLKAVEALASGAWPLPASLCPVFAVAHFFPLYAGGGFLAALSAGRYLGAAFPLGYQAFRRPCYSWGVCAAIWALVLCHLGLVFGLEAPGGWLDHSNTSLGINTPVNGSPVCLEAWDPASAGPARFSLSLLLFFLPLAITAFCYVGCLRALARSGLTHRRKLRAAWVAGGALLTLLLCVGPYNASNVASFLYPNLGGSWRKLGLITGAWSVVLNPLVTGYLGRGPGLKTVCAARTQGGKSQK

Usually EC50 stands for the midpoint of the concentration-response curve. Low values mean an effect from little substance, high ones a need for much substance. Under setting [1], `COc1ccc(F)c(-c2ccc(COc3cccc([C@@H](CC(=O)O)C4CC4)c3)cc2C(OCCCCCn2cc(CCCCCCCCCCCCC(=O)NCCN(CCC(=O)NCCN)CCC(=O)NCCN)nn2)C(C)(C)C)c1` (stereo partly shown) [Example 33] yielded a concentration for a half-maximal effect (EC50) of 36.8 nM. For the compound `COc1ccc(F)c(-c2ccc(COc3cccc([C@@H](CC(=O)O)C4CC4)c3)cc2C(OCCCCCn2cc(CCCCCCCCCCCCC(=O)NCC[N+](C)(CCC(=O)NCCN)CCC(=O)NCCN)nn2)C(C)(C)C)c1` (stereo partly shown) [Example 34], the EC50 under setting [1] turned out to be 1.91 nM.

The compound `C[C@H](C(=O)O)[C@H](c1ccc2c(c1)O[C@@H](C1CCN(Cc3cc(-c4cn(CCCCCCCCCCCCCCCCCC(=O)NCC[N+](C)(C)C)nn4)ccc3OC(F)(F)F)CC1)CC2)C1CC1` [Example 35] displayed an EC50 under setting [1] of 1.18 nM.

Consider `C[C@H](C(=O)O)[C@H](c1ccc2c(c1)O[C@@H](C1CCN(Cc3cc(-c4cn(CCCCCCCCCCCC(=O)NCCN(CCC(=O)NCCN)CCC(=O)NCCN)nn4)ccc3OC(F)(F)F)CC1)CC2)C1CC1` [Example 36], for which the EC50 by setting is: under setting [1], 403 nM; under setting [2], 403 nM.

Under setting [1], `COc1ccc(F)c(-c2ccc(COc3cccc([C@@H](CC(=O)O)C4CC4)c3)cc2CC(C)(C)Cn2cc(CCCCCCCCCCCCCCCCCC(=O)NCC[N+](C)(C)C)nn2)c1` [Example 38] had an EC50 of 5.42 nM.

`C[C@H](C(=O)O)[C@H](c1ccc2c(c1)O[C@@H](C1CCN(Cc3cc(-c4cn(CCCCCCCCCCCCCCCC(=O)NCCN(CCC(=O)NCCN)CCC(=O)NCCN)nn4)ccc3OC(F)(F)F)CC1)CC2)C1CC1` [Example 39]: the EC50 stood at 0.83 nM under setting [1] and 0.83 nM under setting [2]. On to `COc1ccc(F)c(-c2ccc(COc3cccc([C@@H](CC(=O)O)C4CC4)c3)cc2C(C)(C)c2cn(CCCCCCCCCCCCCCCC(=O)NCCN(CCC(=O)NCCN)CCC(=O)NCCN)nn2)c1` [Example 40], for which, under setting [1], the EC50 was 25.3 nM. As for `COc1ccc(C(=O)N(CC(C)(C)CCCCCCn2cc(CCCCCCCCCCCCCCCCCC(=O)NCC[N+](C)(CCC(=O)NCCN)CCC(=O)NCCN)nn2)c2cccc(C)n2)c(N2CCC(COc3cc([C@@H](CC(=O)O)C4CC4)ccn3)CC2)c1` [Example 42], the EC50 under setting [1] was 0.29 nM. Regarding `COc1ccc(C(=O)N(CC(C)(C)CCCCCCn2cc(CCCCCCCCCCCCC(=O)NCC[N+](C)(CCC(=O)NCCN)CCC(=O)NCCN)nn2)c2cccc(C)n2)c(N2CCC(COc3cc([C@@H](CC(=O)O)C4CC4)ccn3)CC2)c1` [Example 43], the EC50 is, setting by setting: under setting [1], 0.21 nM; under setting [2], 0.21 nM.

`COc1ccc(C(=O)N(CC(C)(C)CCCCCCn2cc(CCCCCCCCCCCCCCCCCC(=O)NCC[N+](C)(C)C)nn2)c2cccc(C)n2)c(N2CCC(COc3cc([C@@H](CC(=O)O)C4CC4)ccn3)CC2)c1` [Example 44] had an EC50 under setting [1] of 1.74 nM. Still for that read-out and setting: as for `C[C@H](C(=O)O)[C@H](c1ccc2c(c1)O[C@@H](C1CN(Cc3cc(-c4cn(CCCCCCCCCCCCCCCCCC(=O)NCC[N+](C)(CCC(=O)NCCN)CCC(=O)NCCN)nn4)ccc3OC(F)(F)F)C1)CC2)C1CC1` [Example 45], the figure is 0.68 nM. Compound `C[C@H](C(=O)O)[C@H](c1ccc2c(c1)O[C@@H](C1CCN(Cc3cc(-c4cn(CCCCCCCCCCCCCCCCCC(=O)NCC[N+](C)(C)CCCS(=O)(=O)[O-])nn4)ccc3OC(F)(F)F)CC1)CC2)C1CC1` [Example 46] showed a concentration for a half-maximal effect (EC50) under setting [1] of 2.03 nM. This EC50 is about 3-fold higher than that of the compound before.

`COc1ccc(F)c(-c2ccc(COc3cccc([C@@H](CC(=O)O)C4CC4)c3)cc2C(C)(C)c2cn(CCCCCCCCCCCCCCC(=O)NCCN(CCC(=O)NCCN)CCC(=O)NCCN)nn2)c1` [Example 47]: under setting [1], the EC50 is 117 nM. `COc1ccc(F)c(-c2ccc(COc3cccc([C@@H](CC(=O)O)C4CC4)c3)cc2CC(C)(C)Cn2cc(CCCCCCCCCCCCCCCCCC(=O)NCC[N+](C)(C)CCCS(=O)(=O)[O-])nn2)c1` [Example 48] showed an EC50 under setting [1] of 4.7 nM. In the case of `COc1ccc(F)c(-c2ccc(COc3cccc([C@@H](CC(=O)O)C4CC4)c3)cc2CC(C)(C)Cn2cc(CCCCCCCCCCCCCCC(=O)NCCN(CCC(=O)NCCN)CCC(=O)NCCN)nn2)c1` [Example 49], the EC50 runs as follows: under setting [1], 19.9 nM; under setting [2], 19.9 nM. Turning to `C[C@H](C(=O)O)[C@H](c1ccc2c(c1)O[C@@H](C1CCN(Cc3cc(-c4cn(CCCCCCCCCCCCCCCCCCN(C)CCOCCOCCOCCOCCN5C[C@H](O)[C@@H](O)[C@H](O)[C@H]5CO)nn4)ccc3OC(F)(F)F)CC1)CC2)C1CC1` [Example 50], a half-maximal effect under setting [1] (EC50) was put at 8.46 nM. The compound `COc1ccc(F)c(-c2ccc(COc3cccc([C@@H](CC(=O)O)C4CC4)c3)cc2C(C)(C)c2cn(CCCCCCCCCCCCCCC(=O)NCC[N+](C)(CCC(=O)NCCN)CCC(=O)NCCN)nn2)c1` [Example 51] returned an EC50 under setting [1] of 318 nM.

Take `COc1ccc(F)c(-c2ccc(COc3cccc([C@@H](CC(=O)O)C4CC4)c3)cc2CC(C)(C)Cc2cn(CCCCCCCCCCCCCCC(=O)NCCN(CCC(=O)NCCN)CCC(=O)NCCN)nn2)c1` [Example 52]: the concentration giving a half-maximal response (EC50) by setting is: under setting [1], 26 nM; under setting [2], 26 nM. On to `COc1ccc(C(=O)N(CC(C)(C)CCCCCCn2cc(CCCCCCCCC(=O)NCC[N+](C)(CCC(=O)NCCN)CCC(=O)NCCN)nn2)c2cccc(C)n2)c(N2CCC(COc3cc([C@@H](CC(=O)O)C4CC4)ccn3)CC2)c1` [Example 53], for which the EC50 by setting is: under setting [1], 3.18 nM; under setting [2], 3.81 nM. Turning to `COc1ccc(C(=O)N(CC(C)(C)CCCCCCn2cc(CCCCCCCCCCC(=O)NCC[N+](C)(CCC(=O)NCCN)CCC(=O)NCCN)nn2)c2cccc(C)n2)c(N2CCC(COc3cc([C@@H](CC(=O)O)C4CC4)ccn3)CC2)c1` [Example 54], the concentration for a half-maximal effect (EC50) reads like this: under setting [1], 1.71 nM; under setting [2], 1.71 nM. For `COc1ccc(F)c(-c2ccc(COc3cccc([C@@H](CC(=O)O)C4CC4)c3)cc2CC(C)(C)Cn2cc(CCCCCCCCCCCCCC(=O)NCCN(CCC(=O)NCCN)CCC(=O)NCCN)nn2)c1` [Example 55], the EC50 amounted to 138 nM under setting [1] and 138 nM under setting [2].

`COc1ccc(F)c(-c2ccc(COc3cccc([C@@H](CC(=O)O)C4CC4)c3)cc2CC(C)(C)Cn2cc(CCCCCCCCCCC(=O)NCCN(CCC(=O)NCCN)CCC(=O)NCCN)nn2)c1` [Example 56]: the EC50 by setting is: under setting [1], 1760 nM; under setting [2], 1760 nM. For `COc1ccc(F)c(-c2ccc(COc3cccc([C@@H](CC(=O)O)C4CC4)c3)cc2CC(C)(C)Cn2cc(CCCCCCCCCCCCCC(=O)NCC[N+](C)(CCC(=O)NCCN)CCC(=O)NCCN)nn2)c1` [Example 57], the EC50 by setting is: under setting [1], 63.1 nM; under setting [2], 93.1 nM.

Take `COc1ccc(F)c(-c2ccc(COc3cccc([C@@H](CC(=O)O)C4CC4)c3)cc2CC(C)(C)Cn2cc(CCCCCCCCCCCCCCC(=O)NCC[N+](C)(CCC(=O)NCCN)CCC(=O)NCCN)nn2)c1` [Example 58]: the 50% effective concentration (EC50) reads like this: under setting [1], 36.5 nM; under setting [2], 8.14 nM. In the case of `COc1ccc(F)c(-c2ccc(COc3cccc([C@@H](CC(=O)O)C4CC4)c3)cc2CC(C)(C)Cn2cc(CCCCCCCCCCC(=O)NCC[N+](C)(CCC(=O)NCCN)CCC(=O)NCCN)nn2)c1` [Example 59], the EC50 is, setting by setting: under setting [1], 1260 nM; under setting [2], 1260 nM. `COc1ccc(C(=O)N(CC(C)(C)CCCCCCn2cc(CCCCCCCCCCCCC(=O)NCCN(CC(=O)NCCN)CC(=O)NCCN)nn2)c2cccc(C)n2)c(N2CCC(COc3cc([C@@H](CC(=O)O)C4CC4)ccn3)CC2)c1` [Example 60]: the EC50 under setting [1] was 0.44 nM. For `COc1ccc(C(=O)N(CC(C)(C)CCCCCCn2cc(CCCCCCCCCCCCC(=O)NCC[N+](C)(CC(=O)NCCN)CC(=O)NCCN)nn2)c2cccc(C)n2)c(N2CCC(COc3cc([C@@H](CC(=O)O)C4CC4)ccn3)CC2)c1` [Example 61], a half-maximal effect under setting [1] (EC50) was put at 0.23 nM.

Consider `COc1ccc(C(=O)N(CC(C)(C)CCCCCCCCCCCCCCCCCCCC(=O)NCCN(CC(=O)NCCN)CC(=O)NCCN)c2cccc(C)n2)c(N2CCC(COc3cc([C@@H](CC(=O)O)C4CC4)ccn3)CC2)c1` [Example 64], for which the EC50 under setting [1] stood at 0.68 nM.

In turn, `COc1ccc(C(=O)N(CC(C)(C)CCCCCCCCCCCCCCCCCCCC(=O)NCC[N+](C)(CCC(=O)NCCN)CCC(=O)NCCN)c2cccc(C)n2)c(N2CCC(COc3cc([C@@H](CC(=O)O)C4CC4)ccn3)CC2)c1` [Example 65, (S)-3-((2-aminoethyl)amino)-N-(3-((2-aminoethyl)amino)-3-oxopropyl)-N-(2-(22-(2-(4-(((4-(2-carboxy-1-cyclopropylethyl)pyridin-2-yl)oxy)methyl)piperidin-1-yl)-4-methoxy-N-(6-methylpyridin-2-yl)benzamido)-21,21-dimethyldocosanamido)ethyl)-N-methyl-3-oxopropan-1-aminium chloride] yielded a concentration giving a half-maximal response (EC50) under setting [1] of 0.28 nM.

Compound `C[C@H](C(=O)O)[C@H](c1ccc2c(c1)O[C@@H](C1CCN(Cc3cc(-n4cc(CCCCCCCCCCCCCCCCCC(=O)NCC[N+](C)(C)CCCS(=O)(=O)[O-])nn4)ccc3OC(F)(F)F)CC1)CC2)C1CC1` [Example 66] showed a 50% effective concentration (EC50) under setting [1] of 0.49 nM. This EC50 lies about 1.7-fold higher than the previous one. `COc1ccc(C(=O)N(CC(C)(C)CCCCCCCCCCCCCCCCCCCC(=O)NCC[N+](C)(CC(=O)NCCN)CC(=O)NCCN)c2cccc(C)n2)c(N2CCC(COc3cc([C@@H](CC(=O)O)C4CC4)ccn3)CC2)c1` [Example 67] registered an EC50 under setting [1] of 0.38 nM.
